Experimental data published in patent publication US20250099626A1, “COMPOSITIONS AND METHODS FOR OXONOL DYES WITH NEAR INFRARED FLUORESCENCE” (Washington University, priority 2023, published 2025).

Key:
[1] = Relative fluorescence quantum yield using ICG as a standard; type: physicochemical; conditions: DMSO
Description: The absorption spectra of 4 and 15 were measured in both methanol (FIG. 4(A-B)) and DMSO (FIG. 5(A-D)). […] The broad emission bands allow flexibility in the choice of excitation and fluorescence wavelengths in analytical and biological assays. The relative fluorescence quantum yields of dyes 4 and 15 measured in DMSO using ICG as a standard show the values of 0.24 and 0.093 respectively compared to 0.12 for ICG.

[2] = Absorption and fluorescence emission spectra of the dyes in solvent; type: physicochemical; conditions: for Emission max, nm: excitation 700 nm
Description: Absorption spectra were recorded on a Beckman Coulter DU 640 UV-visible spectrophotometer (Brea, CA) and fluorescence spectra were recorded on a Fluorolog-3 spectrofluorometer (Horiba Jobin Yvon, Inc., Edison, NJ). All fluorescence measurements were conducted at room temperature and were recorded at excitation of 700 nm and emission scan from 715-900 nm.

Solubility in water = type: physicochemical
[3] = Fluorescence lifetime (FLT) by time-correlated single photon counting; type: physicochemical
Description: Fluorescence lifetimes (FLT) were measured using time-correlated single photon counting (TCSPC implemented in Fluorolog-3, Horiba Jobin Yvon) with a 700 nm excitation source NanoLed® (impulse repetition rate 1 MHz) at 90° to the PMT R928P detector (Hamamatsu Photonics, Japan). […] We chose DMSO as the solvent for this study because it provides a similar environment to the biological systems. The detector was set to 740 nm with a 20 nm bandpass and data were collected until the peak signal reached 10,000 counts.

SKBR3-GFP-Luc cells = test: Cellular fluorescence intensity imaging (NIR channel) of dye uptake; type: cell-based, human; conditions: 5 μM, 24 h incubation
Description: SKBR3-GFP-Luc cells (Dual labeled stable SK-BR-3 expressing green fluorescent protein (GFP) and luciferase, SL032, GeneCopoeia, Rockville, MD) were cultured in Dulbecco's Modified Eagle Medium (DMEM high glucose, Gibco) supplemented with 10% Fetal Bovine Serum (FBS), 1% penicillin/streptomycin and 5 μg/mL puromycin, and maintained in a humidified incubator at 37° C. with 5% CO2 atmosphere. For imaging experiments, these GFP labeled HER2+ human breast cancer cells were plated in Fluorobrite DMEM media (Gibco) supplemented with 10% FBS and 1% pen/strep in an 8-well chamber slide (6.0×10^4 cells in 200 μL media per well). […] All cells were washed with DPBS (300 μL×2) before mounting (Fluoromount-G, #1 coverslip) and imaging the slides with either a Zeiss AxioImager Z2 fluorescence microscope or FLIM.
Fluorescence intensity imaging was conducted on a Zeiss Axioimager.Z2 microscope equipped with a Hamamatsu ORCA Flash 4.0 V2 camera, X-Cite Xylis LED-based light source, and 20× Zeiss Plan-Apochromat air objective (0.8 N.A.) The imaging parameters included DAPI: excitation 335-383 nm/emission 420-470 nm/exposure time […] GFP: ex 450-490 nm/500-550 nm/46 ms exposure and NIR: ex 715-752 nm/760-855 nm/1 s exposure. […]

[4] = DMSO; reference value of ICG standard; cited from earlier work

| Compound | Quantum yield (relative fluorescence quantum yield) [1] | Abs max, nm ([2]; DMSO) | Emission max, nm ([2]; DMSO) | Abs max, nm ([2]; Methanol) | Emission max, nm ([2]; Methanol) | Solubility in water (Solubility in water) | Fluorescent lifetime, ns ([3]; DMSO, 700 nm excitation, detector 740 nm) | Fluorescent lifetime, ns ([3]; Methanol) | Cellular internalization / uptake judged by signal intensity in NIR channel (SKBR3-GFP-Luc cells) | Fluorescence quantum yield of the standard [4] |
| --- | --- | --- | --- | --- | --- | --- | --- | --- | --- | --- |
| O=c1cc2/c(=C/C=C/C=C/c3c4c5c(cc(O)cc5oc3=O)OC(O)=C4)c(=O)oc3cc(O)cc(o1)c32 [Dye 4] | 0.24 | 719 nm | 744 nm | 704 nm | 731 nm | low solubility in water | 0.65 ns | 0.28 ns | essentially no appreciable uptake | – |
| CC1(C)C(/C=C/C=C/C=C/C=C2\N(CCCCS(=O)(=O)O)c3ccc4ccccc4c3C2(C)C)=[N+](CCCCS(=O)(=O)[O-])c2ccc3ccccc3c21 [ICG, indocyanine green] | – | – | – | – | – | – | – | – | – | 0.12 |
